Test results: ChEMBL document CHEMBL1201862, “PubChem BioAssay data set” (2004)
Values belong to the compound of their own block, whether it stands above or below them. Activity calls are given as the source filed them.

Key:
Cytochrome P450 2C9 = Cytochrome P450 2C9 (Homo sapiens, UniProt P11712)
Cytochrome P450 2C19 = Cytochrome P450 2C19 (Homo sapiens, UniProt P33261); assay: Cytochrome panel assay with activity outcomes. Panel member name: p450-cyp2c19 Compounds with AC50 equal or less than 10 uM are considered active; type: functional; conditions: read-out: AC50
Chain of Cytochrome P450 2C19 (P33261 whole entry): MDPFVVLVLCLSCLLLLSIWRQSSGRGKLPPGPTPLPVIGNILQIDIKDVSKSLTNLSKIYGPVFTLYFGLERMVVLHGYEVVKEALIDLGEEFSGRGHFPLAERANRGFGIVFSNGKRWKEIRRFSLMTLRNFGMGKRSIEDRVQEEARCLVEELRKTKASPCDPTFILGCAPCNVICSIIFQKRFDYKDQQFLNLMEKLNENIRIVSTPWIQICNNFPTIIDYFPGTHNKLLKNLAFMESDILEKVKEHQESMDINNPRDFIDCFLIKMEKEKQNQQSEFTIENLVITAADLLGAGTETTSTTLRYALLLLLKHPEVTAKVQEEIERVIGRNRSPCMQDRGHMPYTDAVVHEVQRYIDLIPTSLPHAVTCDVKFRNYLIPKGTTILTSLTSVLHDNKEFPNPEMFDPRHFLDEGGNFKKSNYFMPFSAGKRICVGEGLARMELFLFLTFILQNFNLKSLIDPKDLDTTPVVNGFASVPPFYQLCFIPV

Cytochrome P450 2D6 = Cytochrome P450 2D6 (Homo sapiens, UniProt P10635);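 further: CYP2D6 member of a cytochrome P450 panel assay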
Chain of Cytochrome P450 2D6 (P10635 whole entry): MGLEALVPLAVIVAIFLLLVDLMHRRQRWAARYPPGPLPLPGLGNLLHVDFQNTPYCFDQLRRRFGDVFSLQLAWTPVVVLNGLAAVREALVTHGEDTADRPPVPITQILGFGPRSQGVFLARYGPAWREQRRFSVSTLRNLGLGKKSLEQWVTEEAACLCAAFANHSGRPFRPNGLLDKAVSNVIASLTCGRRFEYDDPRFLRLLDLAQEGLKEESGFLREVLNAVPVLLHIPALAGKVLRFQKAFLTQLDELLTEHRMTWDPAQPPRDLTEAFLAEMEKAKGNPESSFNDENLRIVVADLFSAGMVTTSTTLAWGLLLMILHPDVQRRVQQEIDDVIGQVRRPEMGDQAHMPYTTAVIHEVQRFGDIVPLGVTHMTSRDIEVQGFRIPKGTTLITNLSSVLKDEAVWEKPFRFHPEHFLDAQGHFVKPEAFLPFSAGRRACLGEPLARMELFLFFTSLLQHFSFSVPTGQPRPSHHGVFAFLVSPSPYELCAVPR

[1] = target: T1, Corticotropin-releasing factor receptor 2/Corticotropin-releasing factor-binding protein (Homo sapiens, UniProt P24387+Q13324); assay: Dose Response confirmation of uHTS hits for small molecule antagonists of the CRF-binding protein and CRF-R2 receptor complex.; type: functional; conditions: read-out: IC50_Mean
T1 sequence (Q13324 whole entry): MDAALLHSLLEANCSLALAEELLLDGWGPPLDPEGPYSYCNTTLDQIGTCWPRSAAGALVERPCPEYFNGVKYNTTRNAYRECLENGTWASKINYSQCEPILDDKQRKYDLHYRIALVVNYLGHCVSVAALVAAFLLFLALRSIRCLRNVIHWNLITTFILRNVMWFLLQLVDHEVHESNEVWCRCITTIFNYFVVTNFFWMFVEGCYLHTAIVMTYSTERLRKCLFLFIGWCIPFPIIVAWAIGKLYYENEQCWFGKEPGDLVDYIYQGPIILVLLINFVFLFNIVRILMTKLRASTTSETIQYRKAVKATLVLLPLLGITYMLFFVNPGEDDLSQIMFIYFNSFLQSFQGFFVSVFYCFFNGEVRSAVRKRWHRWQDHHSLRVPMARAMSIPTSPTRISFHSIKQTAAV
T1 sequence (P24387 whole entry): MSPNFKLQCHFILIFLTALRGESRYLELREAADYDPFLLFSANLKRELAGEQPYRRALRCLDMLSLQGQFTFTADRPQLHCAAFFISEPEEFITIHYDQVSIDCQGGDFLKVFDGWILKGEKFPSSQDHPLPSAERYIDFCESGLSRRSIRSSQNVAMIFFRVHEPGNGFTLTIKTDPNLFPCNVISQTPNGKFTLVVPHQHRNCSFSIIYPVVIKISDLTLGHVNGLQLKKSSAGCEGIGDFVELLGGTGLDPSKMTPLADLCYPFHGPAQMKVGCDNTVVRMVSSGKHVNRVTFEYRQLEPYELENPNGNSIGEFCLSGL

[2] = target: T1, Corticotropin-releasing factor receptor 2/Corticotropin-releasing factor-binding protein; assay: activators of CRF receptor 2 with binding protein – uHTS hits, confirmation (AID 602473); type: functional; conditions: read-out: EC50_Mean
[3] = CRF-BP/CRF-R2 complex antagonists, dose response, cell-based, uHTS hits, 384-well (AID 651639); type: functional, Homo sapiens; conditions: read-out: IC50_Mean
Paired box protein Pax-8 = Paired box protein Pax-8 (Homo sapiens, UniProt Q06710); assay: inhibitors of PAX8-driven TPO luciferase reporter, dose response, RMG-I cells, cherry-pick (AID 687027); type: functional, cell-based;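 further: luciferase reporter driven by Pax8 target thyroperoxidase promoter measured by SteadyGlo luminescence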
Chain of Paired box protein Pax-8 (Q06710 whole entry): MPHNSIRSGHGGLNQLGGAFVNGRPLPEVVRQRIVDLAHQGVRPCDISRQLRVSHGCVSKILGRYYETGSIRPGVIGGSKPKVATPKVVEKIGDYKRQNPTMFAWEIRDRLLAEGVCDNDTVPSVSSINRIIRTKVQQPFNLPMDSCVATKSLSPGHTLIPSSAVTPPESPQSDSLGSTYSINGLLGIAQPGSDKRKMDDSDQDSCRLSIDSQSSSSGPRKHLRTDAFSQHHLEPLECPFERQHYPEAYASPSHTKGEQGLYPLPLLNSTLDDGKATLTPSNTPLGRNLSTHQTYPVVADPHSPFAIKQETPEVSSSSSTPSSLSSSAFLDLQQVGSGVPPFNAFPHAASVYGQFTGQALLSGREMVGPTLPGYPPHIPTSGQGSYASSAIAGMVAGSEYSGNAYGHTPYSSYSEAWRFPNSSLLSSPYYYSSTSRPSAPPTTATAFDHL

[4] = non-specific cell cytotoxicity, dose response, cytotoxicity control for PAX8 inhibitor project, plate reader, dry powder samples (AID 743021); type: functional, cell-based
[5] = target: T2, Microphthalmia-associated transcription factor (Homo sapiens, UniProt O75030); assay: TRPM1 promoter luciferase signal decrease, dose response, MITF inhibitor project, cell-based, SK-MEL-5, cherry-picked, set 3 (AID 493073); type: functional
T2 sequence (O75030 whole entry): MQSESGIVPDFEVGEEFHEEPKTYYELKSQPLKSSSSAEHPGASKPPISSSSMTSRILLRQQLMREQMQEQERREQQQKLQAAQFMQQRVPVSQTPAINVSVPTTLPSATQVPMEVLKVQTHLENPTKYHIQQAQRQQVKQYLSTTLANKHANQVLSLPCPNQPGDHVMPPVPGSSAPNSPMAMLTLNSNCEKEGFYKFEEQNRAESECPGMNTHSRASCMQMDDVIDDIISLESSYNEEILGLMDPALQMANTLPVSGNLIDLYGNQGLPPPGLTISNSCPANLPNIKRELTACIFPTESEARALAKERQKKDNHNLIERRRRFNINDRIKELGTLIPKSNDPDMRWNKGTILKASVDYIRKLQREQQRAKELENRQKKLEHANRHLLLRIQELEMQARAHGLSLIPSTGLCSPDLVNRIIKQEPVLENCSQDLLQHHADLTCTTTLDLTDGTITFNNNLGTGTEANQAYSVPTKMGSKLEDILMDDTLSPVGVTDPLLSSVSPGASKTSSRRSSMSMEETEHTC

[6] = inhibitors of HIV Env-driven cell fusion, dose response, cherry-pick (AID 652057); type: functional, cell-based
[7] = ZM109 Env clade C HIV-1 fusion inhibitors, dose response, HeLa effector, CEM target cells, luciferase, cherry-pick (AID 652058); type: functional, cell-based
[8] = inhibitors of clade B AD8 Env fusion, dose response, cell-based, cherry-pick (AID 652062); type: functional;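 further: luciferase signal from cell-cell fusion driven by HIV-1 clade B AD8 Env; potency is for inhibitors of fusion seen as a drop in luminescence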
[9] = NIH:OVCAR-3 ovarian cancer cell cytotoxicity, dose response, PAX8 inhibitor project, plate reader, dry powder samples (AID 743044); type: functional, cell-based
[10] = cytotoxicity in OVCAR8 ovarian cancer cells, dose response, PAX8 project, cell-based, plate reader, dry powder samples (AID 743197); type: functional; conditions: OVCAR-8
[11] = P. falciparum Dd2 growth inhibitors, dose response, SYBR Green, cherry-picked samples (AID 1159567); type: functional, cell-based

Chain of Cytochrome P450 2C9 (P11712 whole entry): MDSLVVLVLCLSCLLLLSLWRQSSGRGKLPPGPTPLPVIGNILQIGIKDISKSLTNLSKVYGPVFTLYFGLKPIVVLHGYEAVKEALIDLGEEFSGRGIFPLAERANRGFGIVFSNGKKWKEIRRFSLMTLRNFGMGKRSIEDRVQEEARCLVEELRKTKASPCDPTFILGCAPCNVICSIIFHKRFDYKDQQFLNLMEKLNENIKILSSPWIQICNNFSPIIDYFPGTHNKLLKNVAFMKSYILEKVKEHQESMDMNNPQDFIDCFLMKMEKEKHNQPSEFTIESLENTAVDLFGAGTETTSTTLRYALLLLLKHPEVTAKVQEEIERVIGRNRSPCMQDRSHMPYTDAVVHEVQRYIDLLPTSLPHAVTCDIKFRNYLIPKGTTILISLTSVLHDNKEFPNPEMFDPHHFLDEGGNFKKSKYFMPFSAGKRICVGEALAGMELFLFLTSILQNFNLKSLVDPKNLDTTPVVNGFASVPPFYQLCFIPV

AC50 (Cytochrome P450 2C9): inconclusive
Structure (SMILES): CC1CCN(C(=O)C2CCN(S(=O)(=O)c3cccc4nonc34)CC2)CC1

AC50 (Cytochrome P450 2C19): 7.94 µM (inconclusive)
AC50 (Cytochrome P450 2D6): 31.6 µM (inconclusive)
AC50 (Cytochrome P450 2C9): inconclusive
Structure (SMILES): CCOc1ccc(S(=O)(=O)NCc2ccc(F)cc2)c2cccnc12

IC50 [1]: 5.83 µM (active)
EC50 [2]: > 53 µM (inactive)
IC50 [3]: > 20 µM (inactive)
Structure (SMILES): CC(=O)N(C(C)=O)c1cccc(N(Cc2ccccc2)Cc2ccccc2)c1

Structure (SMILES): COC(=O)C1=C(SC)N(c2ccccc2)C(c2ccccc2)CC1=O (centres undefined)
AC50 (Paired box protein Pax-8): 54.1 µM (active)
AC50 [4]: 62 µM (active)

AC50 [5]: 4.3 µM (active)
AC50 (Paired box protein Pax-8): 6.29 µM (active)
Structure (SMILES): COc1ccccc1NS(=O)(=O)c1cccc(C(=O)N/N=C/c2ccc([N+](=O)[O-])o2)c1

IC50 [1]: < 0.368 µM (active)
EC50 [2]: > 53 µM (inactive)
IC50 [3]: > 20 µM (inactive)
Structure (SMILES): COc1cccc2ccc(CC(O)(c3ccccc3)c3ccccc3)nc12

Structure (SMILES): C[C@H](CO)N1C[C@H](C)[C@H](CN(C)Cc2ccc(F)cc2)OCc2ccccc2-c2ccccc2C1=O
AC50 [6]: 0.557 µM (active)
AC50 [7]: 1.39 µM (active)
AC50 [8]: 3.77 µM (active)

Structure (SMILES): O=C(Cc1ccccc1)N[C@@H]1C=C[C@H](CC(=O)N2CCCCC2)O[C@@H]1CO
AC50 [7]: 28.7 µM (active)

Structure (SMILES): C[C@@H]1CN([C@H](C)CO)C(=O)c2cc(NC(=O)Nc3ccc(F)cc3)ccc2O[C@@H](C)CCCCO[C@@H]1CN(C)Cc1ccc(Cl)c(Cl)c1
AC50 (Paired box protein Pax-8): 8.1 µM (active)
AC50 [9]: 20 µM (active)
AC50 [10]: 38.7 µM (active)

Structure (SMILES): O=S(=O)(c1ccccc1)N1CC[C@@H]2[C@H](CO)Nc3ccc(C#CC4CCCCC4)cc3[C@@H]21
AC50 [11]: 6.42 µM (active)

Structure (SMILES): O=C(c1cnccn1)N1CC(=O)N2[C@@H](CO)[C@@H](c3ccc(C#CCc4ccccc4)cc3)[C@@H]2C1
AC50 [11]: 15.7 µM (active)

Structure (SMILES): CO[C@@H]1CN(C)C(=O)c2ccc(NC(=O)Nc3cc(Cl)cc(Cl)c3)cc2OC[C@H](C)NC[C@H]1C
AC50 [11]: 6.54 µM (active)
